Assay results as given in patent US11938136B2, “Compositions for treating spinal muscular atrophy” (Hoffmann-La Roche Inc., priority 2015, dated 2024).
Converted amounts (≈) assume the structure as drawn. Like-named read-outs stand apart in the source and are kept apart here.

Assays:
[1] = test system: full length SMN2 minigene mRNA; experiment: SMN2 minigene mRNA splicing RT-qPCR assay in cultured cells; format: cell-based, human; conditions: Homo sapiens, HEK293-H; HEK293H cells stably transfected with SMN2-A minigene, 24 hours, 7-point concentration curve; read-out: EC1.5x minigene
Source text: The term “EC1.5x concentration for production of full length SMN2 minigene mRNA” (or “EC1.5x minigene”) is defined as that concentration of test compound that is effective in increasing the amount of full length SMN2 minigene mRNA to a level 1.5-fold greater relative to that in vehicle-treated cells.
The reverse transcription-quantitative PCR-based (RT-qPCR) assay is used to quantify the level of the full length SMN2 minigene (referred to herein by the term “FL SMN2mini”) mRNA containing SMN2 exon 7 in a HEK293H cell line stably transfected with said minigene and treated with a test compound. Materials used and respective sources are listed below in Table 1.
The SMN2-A minigene construct was prepared as described in International Patent Application WO2009/151546A1 page 145 paragraph [00400] to page 147 paragraph [00412](incl. FIG. 1 and FIG. 3 therein).
HEK293H cells stably transfected with the SMN2-A minigene construct (10,000 cells/well) are seeded in 200 μL of cell culture medium (DMEM plus 10% FBS, with 200 μg/mL hygromycin) in 96-well flat-bottom plates and the plate is immediately swirled to ensure proper dispersal of cells and the formation of an even monolayer of cells. Cells are allowed to attach for 6 hours. Test compounds are serially diluted 3.16-fold in 100% DMSO to generate a 7-point concentration curve. A solution of test compound (1 μL, 200× in DMSO) is added to each cell-containing well and the plate is incubated for 24 hours in a cell culture incubator (37° C., 5% CO2, 100% relative humidity). 2 replicates are prepared for each test compound concentration. The cells are then lysed in the Cells-To-Ct lysis buffer and the lysate is stored at −80° C.
Full length SMN2-A minigene and GAPDH mRNA are quantified using the primers and probes referenced in WO2014/209841A2 on page 80 in Table 1. Primer SMN Forward A (SEQ ID NO.1) hybridizes to a nucleotide sequence in exon 7 (nucleotide 22 to nucleotide 40), primer SMN Reverse A (SEQ ID NO.2) hybridizes to a nucleotide sequence in the coding sequence of Firefly luciferase, SMN Probe A (SEQ ID NO.3) hybridizes to a nucleotide sequence in exon 7 (nucleotide 50 to nucleotide 54) and exon 8 (nucleotide 1 to nucleotide 21). The combination of these three oligonucleotides detects only SMN1 or SMN2 minigenes (RT-qPCR) and will not detect endogenous SMN1 or SMN2 genes.
The SMN forward and reverse primers are used at final concentrations of 0.4 μM. The SMN probe is used at a final concentration of 0.15 μM. The GAPDH primers are used at final concentrations of 0.2 μM and the probe at 0.15 μM.
The SMN2-minigene GAPDH mix (15 μL total volume) is prepared by combining 7.5 μL of 2×RT-PCR buffer, 0.4 μL of 25×RT-PCR enzyme mix, 0.75 μL of 20×GAPDH primer-probe mix, 4.0075 μL of water, 2 μL of 10-fold diluted cell lysate, 0.06 μL of 100 μM SMN forward primer, 0.06 μL of 100 μM SMN reverse primer, and 0.225 μL of 100 μM SMN probe.
PCR is carried out at the following temperatures for the indicated time: Step 1: 48° C. (15 min); Step 2: 95° C. (10 min); Step 3: 95° C. (15 sec); Step 4: 60° C. (1 min); then repeat Steps 3 and 4 for a total of 40 cycles.
Each reaction mixture contains both SMN2-A minigene and GAPDH primers/probe sets (multiplex design), allowing simultaneous measurement of the levels of two transcripts.
The increase in the abundance of the FL SMN2mini mRNA relative to that in cells treated with vehicle control is determined from real-time PCR data using a modified ΔΔCt method (as described in Livak and Schmittgen, Methods, 2001, 25:402-8). The amplification efficiency E is calculated from the slope of the amplification curve for FL SMN2mini and GAPDH individually. The abundance of FL SMN2mini and GAPDH mRNA are then calculated as (1+E)^−Ct, where Ct is the threshold value for each amplicon. The abundance of FL SMN2mini mRNA is normalized to GAPDH mRNA abundance. […]

[2] = test system: splicing events and expression levels of genes; conditions: Palacino et al, Nat Chem Biol. 2015, cited from earlier work
[3] = Solubility; format: physicochemical
[4] = Stability of olesoxime (solid state, oral suspension in sesame oil); format: physicochemical; conditions: 25° C./60% RH
Procedure: Examples of compositions comprising olexosime are described in US2010099652A1. […] Olesoxime has low aqueous solubility (less than 5 μg/ml) across the physiological pH range. It is freely soluble or soluble in a range of non-aqueous solvents.
7.5 g crystalline olesoxime powder (particle size distribution with d90 value 70-90 μm) was suspended in 75 ml (61.6 g) sesame oil (refined) as vehicle through agitation (e.g. shaking) to yield a homogeneous suspension (final olesoxime concentration 100 mg/ml).

[5] = test system: patients with Types 2 and 3 SMA; conditions: two-year treatment period, compared with approximately two-point decline in the placebo arm; cited from earlier work
[6] = test system: neonatal rats; conditions: cited from earlier work
[7] = test system: adult mice; conditions: cited from earlier work

Compound	EC (1.5-fold increase) [1] [µM]	other results
Cc1cn2nc(-c3cc(=O)n4cc(N5CCN[C@H](C)C5)cc(C)c4n3)cc(C)c2n1 [Example 25, 2-(2,8-dimethylimidazo[1,2-b]pyridazin-6-yl)-9-methyl-7-[(3R)-3-methylpiperazin-1-yl]pyrido[1,2-a]pyrimidin-4-one]	0.0005	–
Cc1cn2nc(-c3cc(=O)n4cc(N5CCN[C@H](C)C5)ccc4n3)cc(C)c2n1 [Example 9, 2-(2,8-dimethylimidazo[1,2-b]pyridazin-6-yl)-7-[(3R)-3-methylpiperazin-1-yl]pyrido[1,2-a]pyrimidin-4-one]	0.0001	–
CC1(C)CC(Oc2ccc(-c3ccc(-c4cn[nH]c4)cc3O)nn2)CC(C)(C)N1 [NVS-SM1]	–	candidate events where splicing changed in response to treatment [2]: 39; number of genes changed at greater than ±2-fold (p<0.05) ([2]; expression level): 175
Cc1cn2nc(-c3cc(=O)n4cc(N5CCNC(C)(C)C5)ccc4n3)cc(C)c2n1 [Example 22, 2-(2,8-dimethylimidazo[1,2-b]pyridazin-6-yl)-7-(3,3-dimethylpiperazin-1-yl)pyrido[1,2-a]pyrimidin-4-one]	0.0009	–
Cc1cn2nc(-c3cc(=O)n4cc(N5CCN[C@@H](C)C5)cc(C)c4n3)ccc2n1 [Example 33, 9-methyl-2-(2-methylimidazo[1,2-b]pyridazin-6-yl)-7-[(3S)-3-methylpiperazin-1-yl]pyrido[1,2-a]pyrimidin-4-one]	0.0005	–
Cc1cn2nc(-c3cc(=O)n4cc(N5CCCNCC5)ccc4n3)ccc2n1 [Example 13, 7-(1,4-diazepan-1-yl)-2-(2-methylimidazo[1,2-b]pyridazin-6-yl)pyrido[1,2-a]pyrimidin-4-one]	0.005	–
Cc1cn2nc(-c3cc(=O)n4cc(N5CCN[C@@H](C)C5)cc(C)c4n3)cc(C)c2n1 [Example 24, 2-(2,8-dimethylimidazo[1,2-b]pyridazin-6-yl)-9-methyl-7-[(3S)-3-methylpiperazin-1-yl]pyrido[1,2-a]pyrimidin-4-one]	0.0004	–
Cc1cn2nc(-c3cc(=O)n4cc(N5CCN6CCC[C@H]6C5)ccc4n3)ccc2n1 [Example 15, 7-[(8aS)-3,4,6,7,8,8a-hexahydro-1H-pyrrolo[1,2-a]pyrazin-2-yl]-2-(2-methylimidazo[1,2-b]pyridazin-6-yl)pyrido[1,2-a]pyrimidin-4-one]	0.004	–
Cc1cn2nc(-c3cc(=O)n4cc(N5CCN[C@H](C)C5)cc(C)c4n3)ccc2n1 [Example 34, 9-methyl-2-(2-methylimidazo[1,2-b]pyridazin-6-yl)-7-[(3R)-3-methylpiperazin-1-yl]pyrido[1,2-a]pyrimidin-4-one]	0.0009	–
Cc1cn2nc(-c3cc(=O)n4cc(N5CCNC(C)(C)C5)cc(C)c4n3)ccc2n1 [Example 36, 7-(3,3-dimethylpiperazin-1-yl)-9-methyl-2-(2-methylimidazo[1,2-b]pyridazin-6-yl)pyrido[1,2-a]pyrimidin-4-one]	0.005	–
Cc1cn2nc(-c3cc(=O)n4cc(N5CCN[C@@H](C)C5)ccc4n3)cc(C)c2n1 [Example 8, 2-(2,8-dimethylimidazo[1,2-b]pyridazin-6-yl)-7-[(3S)-3-methylpiperazin-1-yl]pyrido[1,2-a]pyrimidin-4-one]	0.0003	–
Cc1cn2nc(-c3cc(=O)n4cc(N5CCNC6(CC6)C5)cc(C)c4n3)cc(C)c2n1 [Example 28, 7-(4,7-diazaspiro[2.5]octan-7-yl)-2-(2,8-dimethylimidazo[1,2-b]pyridazin-6-yl)-9-methyl-pyrido[1,2-a]pyrimidin-4-one]	0.005	–
Cc1cn2nc(-c3cc(=O)n4cc(N5CC[C@H](N6CCCC6)C5)ccc4n3)cc(C)c2n1 [Example 30, 2-(2,8-dimethylimidazo[1,2-b]pyridazin-6-yl)-7-[(3S)-3-pyrrolidin-1-ylpyrrolidin-1-yl]pyrido[1,2-a]pyrimidin-4-one]	0.003	–
Cc1cn2nc(-c3cc(=O)n4cc(N5C[C@H](C)N[C@@H](C)C5)ccc4n3)cc(C)c2n1 [Example 29, 2-(2,8-dimethylimidazo[1,2-b]pyridazin-6-yl)-7-[(3S,5S)-3,5-dimethylpiperazin-1-yl]pyrido[1,2-a]pyrimidin-4-one]	0.0003	–
Cc1cn2nc(-c3cc(=O)n4cc(N5C[C@H](C)N[C@@H](C)C5)cc(C)c4n3)ccc2n1 [Example 38, 7-[(3S,5S)-3,5-dimethylpiperazin-1-yl]-9-methyl-2-(2-methylimidazo[1,2-b]pyridazin-6-yl)pyrido[1,2-a]pyrimidin-4-one]	0.0003	–
Cc1cn2nc(-c3cc(=O)n4cc(N5CCN6CCC[C@@]6(C)C5)ccc4n3)cc(C)c2n1 [Example 5, 7-[(8aS)-8a-methyl-1,3,4,6,7,8-hexahydropyrrolo[1,2-a]pyrazin-2-yl]-2-(2,8-dimethylimidazo[1,2-b]pyridazin-6-yl)pyrido[1,2-a]pyrimidin-4-one]	0.0006	–
CC[C@@H]1CN(c2ccc3nc(-c4ccc5nc(C)cn5n4)cc(=O)n3c2)CCN1 [Example 39, 7-[(3R)-3-ethylpiperazin-1-yl]-2-(2-methylimidazo[1,2-b]pyridazin-6-yl)pyrido[1,2-a]pyrimidin-4-one]	0.0009	–
CC(C)CCC[C@@H](C)[C@H]1CC[C@H]2[C@@H]3CCC4=C/C(=N/O)CC[C@]4(C)[C@H]3CC[C@]12C (stereo in doubt) [Olesoxime, Cholest-4-en-3-one oxime]	–	solubility ([3]; aqueous medium, aqueous buffer, across the physiological pH range, read-out: aqueous solubility): < 0.005 mg/mL; solubility ([3]; sesame oil, oil or lipid, read-out: solubility in sesame oil): ~35 mg/mL (≈ 87.6 mM); stable in the solid state [4]: > 36 months; motor function (motor function measure, MFM) [5]: maintenance of motor function; effect on motor neurons after nerve lesion [6]: rescues motor neurons from cell death; effect on nerve regeneration after nerve crush [7]: promotes nerve regeneration
